# Reference: patent US20150296790A1, “SILICON-CONTAINING COMPOUND AQUEOUS SOLUTION AND ANTIBACTERIAL/ANTIVIRAL AGENT INCLUDING SAID SOLUTION” (JEX CO., LTD., priority 2012, published 2015)
# Experiment: Solubility of Silicon-Containing Compound E in aqueous CD solutions (clarity and stability, visual)
# Format: physicochemical
# Parameters: key to Solubility of Compound E: Stability: OK: When the aqueous solutions of the CD and the Silicon-Containing Compound E did not exhibit the conditions such as presence of precipitates and deposits, the solutions were considered as stable; NG: When the aqueous solutions of the CD and the Silicon-Containing Compound E exhibited the conditions such as presence of precipitates and deposits, the solutions were not considered as stable; key to Solubility of Compound E: Clarity: When the aqueous solutions of the CD and the Silicon-Containing Compound E were clear, the solutions were rated as “OK”; When the aqueous solutions of the CD and the Silicon-Containing Compound E were not clear, the solutions were rated as “NG”
# Settings: purified water
# Method: To determine “Solubility of Compound E” in the tables, the Silicon-Containing Compound E as another solute was added at respective ratios shown in the respective tables (see “Ratio of Compound E” in the tables) to the respective aqueous CD solutions after evaluation of the solubility of CD, and then the mixture was stirred on a shaker to prepare the respective aqueous solutions of the CD and the Silicon-Containing Compound E. Immediately after preparation of the aqueous solutions of the CD and the Silicon-Containing Compound E, the clarity of the aqueous solutions was visually evaluated. When the aqueous solutions of the CD and the Silicon-Containing Compound E were clear, the solutions were rated as “OK”. When the aqueous solutions of the CD and the Silicon-Containing Compound E were not clear, the solutions were rated as “NG”. “Stability” in “Solubility of Compound E” in the tables was determined by allowing the respective aqueous solutions of the CD and the Silicon-Containing Compound E after preparation to stand at ambient temperature for a predetermined period and then visually evaluating the conditions (such as presence of precipitates and deposits) of the solutions.
# [1] = DEXYPEARL 1 w/w %, Compound E 0.1 w/w %
# [2] = DEXYPEARL 2 w/w %, Compound E 0.1 w/w %
# [3] = DEXYPEARL 3 w/w %, Compound E 0.1 w/w %
# [4] = DEXYPEARL 4 w/w %, Compound E 0.1 w/w %
# [5] = DEXYPEARL 5 w/w %, Compound E 0.1 w/w %
# [6] = DEXYPEARL 6 w/w %, Compound E 0.1 w/w %
# [7] = DEXYPEARL 7 w/w %, Compound E 0.1 w/w %
# [8] = DEXYPEARL 8 w/w %, Compound E 0.1 w/w %
# [9] = DEXYPEARL 9 w/w %, Compound E 0.1 w/w %
# [10] = DEXYPEARL 10 w/w %, Compound E 0.1 w/w %
# [11] = DEXYPEARL 20 w/w %, Compound E 0.1 w/w %
# [12] = DEXYPEARL 30 w/w %, Compound E 0.1 w/w %
# [13] = DEXYPEARL 40 w/w %, Compound E 0.1 w/w %
# [14] = ISOELEAT 1 w/w %, Compound E 0.1 w/w %
# [15] = ISOELEAT 2 w/w %, Compound E 0.1 w/w %
# [16] = ISOELEAT 3 w/w %, Compound E 0.1 w/w %
# [17] = ISOELEAT 4 w/w %, Compound E 0.1 w/w %
# [18] = ISOELEAT 5 w/w %, Compound E 0.1 w/w %
# [19] = ISOELEAT 6 w/w %, Compound E 0.1 w/w %
# [20] = ISOELEAT 7 w/w %, Compound E 0.1 w/w %
# [21] = ISOELEAT 8 w/w %, Compound E 0.1 w/w %
# [22] = ISOELEAT 9 w/w %, Compound E 0.1 w/w %
# [23] = ISOELEAT 10 w/w %, Compound E 0.1 w/w %
# [24] = ISOELEAT 20 w/w %, Compound E 0.1 w/w %
# [25] = ISOELEAT 30 w/w %, Compound E 0.1 w/w %
# [26] = ISOELEAT 40 w/w %, Compound E 0.1 w/w %
# [27] = ISOELEAT 50 w/w %, Compound E 0.1 w/w %
# [28] = α-CD 1 w/w %, Compound E 0.1 w/w %
# [29] = α-CD 1 w/w %, Compound E 0.2 w/w %
# [30] = α-CD 1 w/w %, Compound E 0.3 w/w %
# [31] = α-CD 1 w/w %, Compound E 0.4 w/w %
# [32] = α-CD 1 w/w %, Compound E 0.5 w/w %
# [33] = α-CD 1 w/w %, Compound E 0.6 w/w %
# [34] = α-CD 1 w/w %, Compound E 0.7 w/w %
# [35] = α-CD 1 w/w %, Compound E 0.8 w/w %
# [36] = α-CD 1 w/w %, Compound E 0.9 w/w %
# [37] = α-CD 1 w/w %, Compound E 1 w/w %
# [38] = α-CD 7 w/w %, Compound E 0.1 w/w %
# [39] = α-CD 7 w/w %, Compound E 0.2 w/w %
# [40] = α-CD 7 w/w %, Compound E 0.3 w/w %
# [41] = α-CD 7 w/w %, Compound E 0.4 w/w %
# [42] = α-CD 7 w/w %, Compound E 0.5 w/w %
# [43] = α-CD 7 w/w %, Compound E 0.6 w/w %
# [44] = α-CD 7 w/w %, Compound E 0.7 w/w %
# [45] = α-CD 7 w/w %, Compound E 0.8 w/w %
# [46] = α-CD 7 w/w %, Compound E 0.9 w/w %
# [47] = α-CD 7 w/w %, Compound E 1 w/w %
# [48] = β-CD 1 w/w %, Compound E 0.1 w/w %
structure (smiles),measurement,setting,value
"CCCCCCCCCCCCCCCCCC[N+](C)(C)CCC[Si](OCC)(OCC)OCC.[Cl-] [Compound E, Octadecyl dimethyl(3-triethoxysilylpropyl)ammonium chloride]",Solubility of Compound E: Clarity,[1],OK
same,Solubility of Compound E: Stability,[1],OK
same,Solubility of Compound E: Clarity,[2],OK
same,Solubility of Compound E: Stability,[2],OK
same,Solubility of Compound E: Clarity,[3],OK
same,Solubility of Compound E: Stability,[3],OK
same,Solubility of Compound E: Clarity,[4],OK
same,Solubility of Compound E: Stability,[4],OK
same,Solubility of Compound E: Clarity,[5],OK
same,Solubility of Compound E: Stability,[5],OK
same,Solubility of Compound E: Clarity,[6],OK
same,Solubility of Compound E: Stability,[6],OK
same,Solubility of Compound E: Clarity,[7],OK
same,Solubility of Compound E: Stability,[7],OK
same,Solubility of Compound E: Clarity,[8],OK
same,Solubility of Compound E: Stability,[8],OK
same,Solubility of Compound E: Clarity,[9],OK
same,Solubility of Compound E: Stability,[9],OK
same,Solubility of Compound E: Clarity,[10],OK
same,Solubility of Compound E: Stability,[10],OK
same,Solubility of Compound E: Clarity,[11],OK
same,Solubility of Compound E: Stability,[11],NG
same,Solubility of Compound E: Clarity,[12],NG
same,Solubility of Compound E: Stability,[12],NG
same,Solubility of Compound E: Clarity,[13],NG
same,Solubility of Compound E: Stability,[13],NG
same,Solubility of Compound E: Clarity,[14],OK
same,Solubility of Compound E: Stability,[14],OK
same,Solubility of Compound E: Clarity,[15],OK
same,Solubility of Compound E: Stability,[15],OK
same,Solubility of Compound E: Clarity,[16],OK
same,Solubility of Compound E: Stability,[16],OK
same,Solubility of Compound E: Clarity,[17],OK
same,Solubility of Compound E: Stability,[17],OK
same,Solubility of Compound E: Clarity,[18],OK
same,Solubility of Compound E: Stability,[18],OK
same,Solubility of Compound E: Clarity,[19],OK
same,Solubility of Compound E: Stability,[19],OK
same,Solubility of Compound E: Clarity,[20],OK
same,Solubility of Compound E: Stability,[20],OK
same,Solubility of Compound E: Clarity,[21],OK
same,Solubility of Compound E: Stability,[21],OK
same,Solubility of Compound E: Clarity,[22],OK
same,Solubility of Compound E: Stability,[22],OK
same,Solubility of Compound E: Clarity,[23],NG
same,Solubility of Compound E: Stability,[23],NG
same,Solubility of Compound E: Clarity,[24],NG
same,Solubility of Compound E: Stability,[24],NG
same,Solubility of Compound E: Clarity,[25],NG
same,Solubility of Compound E: Stability,[25],NG
same,Solubility of Compound E: Clarity,[26],NG
same,Solubility of Compound E: Stability,[26],NG
same,Solubility of Compound E: Clarity,[27],NG
same,Solubility of Compound E: Stability,[27],NG
same,Solubility of Compound E: Clarity,[28],NG
same,Solubility of Compound E: Stability,[28],OK
same,Solubility of Compound E: Clarity,[29],NG
same,Solubility of Compound E: Stability,[29],OK
same,Solubility of Compound E: Clarity,[30],NG
same,Solubility of Compound E: Stability,[30],OK
same,Solubility of Compound E: Clarity,[31],NG
same,Solubility of Compound E: Stability,[31],OK
same,Solubility of Compound E: Clarity,[32],NG
same,Solubility of Compound E: Stability,[32],OK
same,Solubility of Compound E: Clarity,[33],NG
same,Solubility of Compound E: Stability,[33],OK
same,Solubility of Compound E: Clarity,[34],NG
same,Solubility of Compound E: Stability,[34],OK
same,Solubility of Compound E: Clarity,[35],NG
same,Solubility of Compound E: Stability,[35],NG
same,Solubility of Compound E: Clarity,[36],NG
same,Solubility of Compound E: Stability,[36],NG
same,Solubility of Compound E: Clarity,[37],NG
same,Solubility of Compound E: Stability,[37],NG
same,Solubility of Compound E: Clarity,[38],NG
same,Solubility of Compound E: Stability,[38],OK
same,Solubility of Compound E: Clarity,[39],NG
same,Solubility of Compound E: Stability,[39],OK
same,Solubility of Compound E: Clarity,[40],NG
same,Solubility of Compound E: Stability,[40],OK
same,Solubility of Compound E: Clarity,[41],NG
same,Solubility of Compound E: Stability,[41],OK
same,Solubility of Compound E: Clarity,[42],NG
same,Solubility of Compound E: Stability,[42],OK
same,Solubility of Compound E: Clarity,[43],NG
same,Solubility of Compound E: Stability,[43],OK
same,Solubility of Compound E: Clarity,[44],NG
same,Solubility of Compound E: Stability,[44],OK
same,Solubility of Compound E: Clarity,[45],NG
same,Solubility of Compound E: Stability,[45],OK
same,Solubility of Compound E: Clarity,[46],NG
same,Solubility of Compound E: Stability,[46],OK
same,Solubility of Compound E: Clarity,[47],NG
same,Solubility of Compound E: Stability,[47],OK
same,Solubility of Compound E: Clarity,[48],NG
same,Solubility of Compound E: Stability,[48],OK
same,Solubility of Compound E: Clarity,"β-CD 1 w/w %, Compound E 0.2 w/w %",NG
